Reference: patent publication US20240245717A1, “ANTIVIRAL COMPOUNDS, COMPOSITIONS, AND USES THEREOF” (priority 2022, published 2024)
“And” between values parts separate entries of the source, which are not always exact repeats. Identical values can stand only once.

Key:
[1] = tested on: SARS-CoV-2 isolate Hong Kong/VM20001061/2020; test: microbe, parasite or virus in culture; assay type: cell-based; design: % of control: dose or concentration left out as unconfirmed; conditions: 48 hours
[2] = tested on: Pseudovirus rVSV-SARS-CoV-2; test: microbe, parasite or virus in culture; assay type: cell-based; conditions: for IC50: Pseudovirus, Vero, 24 h, read-out: NT50
SARS-CoV-2 WAS-Calu-3 = tested on: SARS-CoV-2 WAS-Calu-3; design: species or system Golden Syrian Hamsters; conditions: hamster, in vivo

Row | Structure (SMILES) | % of control [1] | inhibition at 3120 µg/mL ([1]; Severe acute respiratory syndrome coronavirus 2, HEK-293T, 3.12 mg/ml) | neutralization of SARS CoV-2 infection in vitro [2] | IC50 [2] | body weight of infected, treated hamsters (SARS-CoV-2 WAS-Calu-3) | viral titers from harvested lungs (SARS-CoV-2 WAS-Calu-3)
1 | CCCCOP(=O)(O)OC[C@H]1O[C@@H](n2ccc(N)nc2=O)[C@H](OC)[C@@H]1OP(=O)(O)OCCCC [Nu-10, ((2R,3R,4R,5R)-5-(4-amino-2-oxopyrimidin-1(2H)-yl)-3-((butoxy(hydroxy)phosphoryl)oxy)-4-methoxytetrahydrofuran-2-yl) methyl butyl hydrogen phosphate] | 3% and 8% | 97% | neutralize SARS CoV-2 infection in vitro | 21.8 mg/mL |  | 
2 | CCCCOP(=O)(O)OC[C@H]1O[C@@H](n2ccc(N)nc2=O)C[C@@H]1OP(=O)(O)OCCCC [Nu-8, ((2R,3S,5R)-5-(4-amino-2-oxopyrimidin-1(2H)-yl)-3-((butoxyoxidophosphor-yl)oxy)tetrahydrofuran-2-yl)methyl butyl phosphate] |  |  |  |  | began to regain body weight | no virus detected
3 | CCCCOP(=O)(O)OC[C@H]1O[C@@H](n2cnc3c(N)ncnc32)[C@H](OC)[C@@H]1OP(=O)(O)OCCCC [Nu-11, (2R,3R,4R,5R)-5-(6-aminopurin-9-yl)-3-((butoxy(hydroxy)phosphoryl)oxy)-4-methoxytetrahydrofuran-2-yl)methyl butyl hydrogen phosphate] |  |  | neutralize SARS CoV-2 infection in vitro | 1.15 mg/mL |  | 
4 | CCCCOP(=O)(O)OC[C@H]1O[C@@H](n2cc(C)c(=O)[nH]c2=O)C[C@@H]1OP(=O)(O)OCCCC [Nu-3, butyl-phosphate-5′-thymidine-3′-phosphate-butyl] |  |  |  |  | began to regain body weight | did not show any measurable viral particles, with the exception of one hamster
